In patent US9255132B2, “Angiopoietin derived peptides” (Compugen Ltd., priority 2008, dated 2016):
Residues, ends and D or L forms follow the SMILES beside them.

Molecular target: T1, recombinant human Tie-2/Fc chimera (Homo sapiens, UniProt Q02763)
T1 construct: purchased R&D Systems 313-TI
Assay: BIACORE (SPR) direct binding of peptides to immobilized Tie2
Details: 10-50 μM peptide
Text: The capability of CGEN-G6 [SEQ ID NO: 6], CGEN-F9 [SEQ ID NO: 7], CGEN-C6 [SEQ ID NO: 9], CGEN-A11 [SEQ ID NO: 10], and CGEN-G2 [SEQ ID NO: 11] to specifically bind to recombinant Tie2 and interfere with the binding of Ang1, Ang2, or Ang4 to Tie2 was investigated using the BIACORE technology, measuring protein-protein interaction and binding affinity (Wendler et al 2005, Anal Bioanal Chem, 381: 1056-1064). The technology is based on surface plasmon resonance (SPR), an optical phenomenon that enables detection of unlabeled interactants in real time. […]
Peptide-protein interaction was analyzed using surface plasmon resonance. […] Solutions containing 10-50 μM of CGEN-G6 [SEQ ID NO: 6], CGEN-F9 [SEQ ID NO: 7], CGEN-C6 [SEQ ID NO: 9], CGEN-A11 [SEQ ID NO: 10], and CGEN-G2 [SEQ ID NO: 11] were injected into the sample chamber of the BIACORE device at a rate of 20 μl/min and the interaction was monitored using surface plasmon resonance. In addition, solutions containing 100-500 nM of Ang1, Ang2, and Ang4 proteins were injected alone or in combination with 10-50 μM of CGEN-G6 [SEQ ID NO: 6], CGEN-F9 [SEQ ID NO: 7], CGEN-C6 [SEQ ID NO: 9], CGEN-A11 [SEQ ID NO: 10], and CGEN-G2 [SEQ ID NO: 11] peptides at a constant ratio of 1:100 (Ang ligand to peptide) into the sample chamber of the BIACORE device at a rate of 20 μl/min and the interaction was monitored using surface plasmon resonance. […]

T1 sequence (Q02763 with tags, fused parts or gaps limits assumed): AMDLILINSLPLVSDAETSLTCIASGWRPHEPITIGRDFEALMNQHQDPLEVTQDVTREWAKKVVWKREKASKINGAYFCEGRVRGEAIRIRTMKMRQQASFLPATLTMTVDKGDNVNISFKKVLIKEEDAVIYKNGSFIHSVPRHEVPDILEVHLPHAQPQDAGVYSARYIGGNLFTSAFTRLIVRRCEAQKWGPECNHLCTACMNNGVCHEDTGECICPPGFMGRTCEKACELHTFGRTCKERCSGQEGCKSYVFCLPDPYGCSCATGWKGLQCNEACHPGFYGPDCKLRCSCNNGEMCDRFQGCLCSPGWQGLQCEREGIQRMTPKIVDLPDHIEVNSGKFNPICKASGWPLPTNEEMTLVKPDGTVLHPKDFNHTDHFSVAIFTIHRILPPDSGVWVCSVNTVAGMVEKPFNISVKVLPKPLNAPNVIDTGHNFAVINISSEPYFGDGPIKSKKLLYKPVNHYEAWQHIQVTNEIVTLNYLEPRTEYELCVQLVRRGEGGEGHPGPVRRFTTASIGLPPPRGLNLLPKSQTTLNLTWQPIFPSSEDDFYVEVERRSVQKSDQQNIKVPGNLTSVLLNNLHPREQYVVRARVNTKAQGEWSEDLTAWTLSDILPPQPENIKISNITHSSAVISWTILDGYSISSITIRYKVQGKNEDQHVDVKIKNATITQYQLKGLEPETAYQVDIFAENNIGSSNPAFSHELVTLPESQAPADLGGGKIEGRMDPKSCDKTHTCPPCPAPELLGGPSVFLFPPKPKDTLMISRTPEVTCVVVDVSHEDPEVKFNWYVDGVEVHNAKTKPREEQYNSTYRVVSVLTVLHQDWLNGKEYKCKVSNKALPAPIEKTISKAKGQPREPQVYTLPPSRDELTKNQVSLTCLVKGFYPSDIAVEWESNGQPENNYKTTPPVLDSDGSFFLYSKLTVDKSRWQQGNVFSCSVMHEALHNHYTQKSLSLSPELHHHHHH

binding of peptide alone to immobilized Tie2: some non specific binding
SMILES: CC[C@H](C)[C@H](NC(=O)[C@H](C)NC(=O)[C@H](CCCNC(=N)N)NC(=O)[C@H](CCC(=O)O)NC(=O)[C@H](CC(C)C)NC(=O)[C@H](CCCCN)NC(=O)[C@H](CCCCN)NC(=O)[C@H](CC(C)C)NC(=O)[C@H](Cc1c[nH]c2ccccc12)NC(=O)[C@H](CCC(N)=O)NC(=O)[C@@H](NC(=O)[C@H](CC(N)=O)NC(=O)[C@H](CC(N)=O)NC(=O)[C@H](CCC(N)=O)NC(=O)[C@H](CC(C)C)NC(=O)[C@H](C)NC(=O)[C@H](CCC(N)=O)NC(=O)[C@H](CCC(=O)O)NC(=O)[C@H](CC(C)C)NC(=O)[C@H](CCC(N)=O)NC(=O)[C@H](CCCCN)NC(=O)[C@@H](NC(=O)[C@H](CCC(N)=O)NC(=O)[C@H](CCC(N)=O)NC(=O)[C@@H](NC(C)=O)[C@@H](C)O)C(C)C)[C@@H](C)O)C(=O)N[C@@H](CCCCN)C(=O)N[C@H](C(=O)N[C@H](C(=O)N[C@@H](CC(C)C)C(N)=O)[C@@H](C)CC)[C@@H](C)O [CGEN-G2] (Ac-TQQVKQLEQALQNNTQWLKKLERAIKTIL-NH2)
